# Source: ChEMBL document CHEMBL1201862, “PubChem BioAssay data set” (2004)
# Activity calls are given as the source filed them. Cut-off read from the data, not from the text of the source, for most assays here: actives have a measured EC50 and inactives only a lower limit.
# Tests used:
# [1] = Trypanosoma cruzi growth suppression in host cells – NIH3T3 host cells, beta-gal luminescence, confirmation (AID 2044); format: functional, cell-based;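 note: intracellular parasites grown in NIH/3T3 mouse fibroblasts as host cells; luminescent beta-galactosidase reporter signal from transgenic T. cruzi replicating inside host cells; inhibitors lower the luminescence signal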
# [2] = NIH3T3 cell viability loss – ATP luminescence, mouse fibroblasts, counter-screen, dose response (AID 2010); format: functional, cell-based;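 note: cells exposed to compound for about 90 hours before reading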
# [3] = molecular target: T1, Heat shock factor protein 1 (Mus musculus, UniProt P38532); test: enhancement of HSF1-driven luciferase signal – cell-based, NIH3T3, luminescence, dose retest, confirmation (AID 435004); format: functional;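 note: stress induced by proteasome inhibitor MG132 added 30 min after compound; luciferase reporter driven by HSF1 response element in NIH3T3 cells; actives raise luminescence as potentiators of the MG132 stress response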
# T1 sequence (P38532 whole entry): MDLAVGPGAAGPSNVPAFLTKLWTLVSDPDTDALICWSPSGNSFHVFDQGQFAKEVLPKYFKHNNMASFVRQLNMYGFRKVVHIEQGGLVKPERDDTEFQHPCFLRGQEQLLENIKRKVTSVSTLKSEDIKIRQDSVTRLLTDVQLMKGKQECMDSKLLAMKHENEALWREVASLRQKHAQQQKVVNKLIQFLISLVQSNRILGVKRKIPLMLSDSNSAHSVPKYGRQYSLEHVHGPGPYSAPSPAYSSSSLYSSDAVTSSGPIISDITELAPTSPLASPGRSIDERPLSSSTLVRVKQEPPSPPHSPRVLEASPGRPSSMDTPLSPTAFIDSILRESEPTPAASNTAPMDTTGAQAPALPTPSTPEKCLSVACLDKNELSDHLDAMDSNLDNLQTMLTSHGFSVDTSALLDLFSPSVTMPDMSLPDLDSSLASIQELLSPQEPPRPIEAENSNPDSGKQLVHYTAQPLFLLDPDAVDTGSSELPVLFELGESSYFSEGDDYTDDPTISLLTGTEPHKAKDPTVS
# [4] = tested on: INS1; test: INS-1E survival protection against cytokine death – cell-based, luminescence, retest, dose response (AID 449756); format: functional; details: Rattus norvegicus;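 note: cell death triggered by IL-1 beta plus TNF-alpha plus IFN-gamma mixture; protective hits raise ATP signal compared with cytokine alone wells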
# [5] = Luminescence Cell-Based Dose Confirmation HTS to Identify Activators of 5'UTR Stem-Loop Driven Alpha-Synuclein mRNA Translation in H4 Neuroglioblastoma Cells. [Related pubchem assays: 1829 (Project Summary), 1814 (Primary HTS)]; format: functional
# [6] = Luminescence Cell-Based Dose Response HTS to Identify Activators of Luciferase Translation or Activity in H4 […] Cells. [Related pubchem assays: 1829 (Project Summary), 1814 (Primary HTS)]; format: functional
# [7] = tested on: H4; test: Luminescence Cell-Based Dose Response HTS to Identify Activators of 5'UTR Stem-Loop Driven Prion Protein mRNA Translation in H4 Neuroglioblastoma Cells. [Related pubchem assays: 1829 (Project Summary), 1814 (Primary HTS)]; format: functional; details: Homo sapiens
# [8] = Luminescence Cell-Based Dose Retest to Confirm Inhibitors of Cancer Stem Cells. [Related pubchem assays (depositor defined):AID2717, AID2721]; format: functional; details: Homo sapiens
# [9] = molecular target: T2, Protein skinhead-1 (Caenorhabditis elegans, UniProt P34707); format: functional
# T2 sequence (P34707 whole entry): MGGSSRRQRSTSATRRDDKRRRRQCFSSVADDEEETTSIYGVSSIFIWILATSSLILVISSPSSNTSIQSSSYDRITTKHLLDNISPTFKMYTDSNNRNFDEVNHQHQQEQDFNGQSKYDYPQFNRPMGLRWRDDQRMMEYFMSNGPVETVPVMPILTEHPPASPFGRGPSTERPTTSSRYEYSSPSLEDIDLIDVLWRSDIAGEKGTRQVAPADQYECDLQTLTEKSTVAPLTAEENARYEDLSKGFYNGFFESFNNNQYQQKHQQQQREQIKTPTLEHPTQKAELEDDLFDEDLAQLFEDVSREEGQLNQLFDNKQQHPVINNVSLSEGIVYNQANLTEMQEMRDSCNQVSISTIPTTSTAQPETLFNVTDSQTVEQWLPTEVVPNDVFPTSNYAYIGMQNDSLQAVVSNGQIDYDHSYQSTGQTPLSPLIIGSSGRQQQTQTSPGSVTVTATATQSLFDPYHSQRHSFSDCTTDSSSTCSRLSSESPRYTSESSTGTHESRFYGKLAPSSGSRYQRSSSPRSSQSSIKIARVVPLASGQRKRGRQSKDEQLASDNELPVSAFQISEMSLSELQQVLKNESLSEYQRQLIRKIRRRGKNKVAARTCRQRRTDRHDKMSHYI
# [10] = tested on: H9c2; test: cells; format: functional, cell-based; details: Rattus norvegicus, H9c2, Myocardium;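 note: confirmatory concentration-response retest of ultra-high-throughput screening hits for modulation of myocardial damage; cell death induced by hydrogen peroxide oxidative stress; compound pretreatment for 60 min then peroxide exposure for 2 h; potency is for protecting the cells against peroxide damage rather than for killing them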
# [11] = molecular target: T3, Leucine aminopeptidase (Plasmodium falciparum 3D7, UniProt Q8IL11); test: P. falciparum M17LAP inhibitors, primary screen, biochemical, fluorogenic H-Leu-NHMec substrate, 1536-well (AID 1619); format: functional
# T3 sequence (Q8IL11 whole entry): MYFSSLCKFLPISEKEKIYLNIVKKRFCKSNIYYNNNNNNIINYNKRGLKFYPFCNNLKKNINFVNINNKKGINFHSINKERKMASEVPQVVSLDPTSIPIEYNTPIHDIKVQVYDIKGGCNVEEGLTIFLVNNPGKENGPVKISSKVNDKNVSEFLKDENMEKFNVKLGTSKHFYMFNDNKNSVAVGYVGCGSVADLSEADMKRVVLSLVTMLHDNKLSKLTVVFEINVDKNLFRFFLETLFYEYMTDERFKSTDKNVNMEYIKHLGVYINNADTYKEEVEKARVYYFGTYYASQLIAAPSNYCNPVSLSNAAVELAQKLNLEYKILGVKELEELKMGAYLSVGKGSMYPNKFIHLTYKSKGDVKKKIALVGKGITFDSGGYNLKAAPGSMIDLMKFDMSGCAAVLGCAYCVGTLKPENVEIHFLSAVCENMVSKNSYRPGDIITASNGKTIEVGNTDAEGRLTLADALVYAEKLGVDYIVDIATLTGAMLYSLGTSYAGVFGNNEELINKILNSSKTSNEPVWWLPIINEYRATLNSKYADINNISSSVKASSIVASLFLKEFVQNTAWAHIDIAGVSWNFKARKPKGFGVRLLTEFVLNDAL
# [12] = tested on: Streptococcus sp. 'group A'; test: Streptococcus pyogenes SK(-)GAS viability under kanamycin – luminescence, BacTiterGlo, confirmation, counter-screen for streptokinase expression inhibitor project, dose response (AID 1900); format: functional, organism-based
# [13] = tested on: Streptococcus; test: GAS UMAA2166 growth inhibition – luminescence, BacTiterGlo, counter-screen for streptokinase expression inhibitor project, dose response (AID 1915); format: functional, organism-based;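 note: potency for reduction of bacterial viability or growth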
# [14] = viability of uninfected HEp-2 cells – cell-based, HTS, cytotoxicity control for RSV inhibitor project, dose response (AID 2410); format: functional; details: human respiratory syncytial virus
structure (smiles),measurement,setting,value
Cc1[nH]c2ccccc2c1CN1CCN(c2ccccn2)CC1,EC50,[1],1.28 µM (active)
same,EC50,[2],> 60 µM (not active)
same,EC50,[3],84 µM (active)
same,AC50,[4],4.21 µM (active)
Cc1ccc(O)c(NC(=O)c2onc(C)c2Cl)c1,EC50,[3],3.11 µM (active)
CC(=O)c1ccc(NC(=O)CSc2nc(=O)cc(N)n2-c2ccccc2)cc1,EC50,[5],22.5 µM (active)
same,EC50,[6],12.3 µM (active)
same,EC50,[7],10.9 µM (active)
O=[N+]([O-])c1cccc(-c2csc(Nc3ccccc3)n2)c1,AC50,[8],4.04 µM (active)
same,IC50,[9],> 100 µM (inactive)
CC1=C(Sc2nc3ccccc3[nH]2)C(=O)NC(C)(C)C1,EC50,[3],> 260 µM (inactive)
Cc1cccc(NC(=O)c2ccc(COc3ccc(Cl)cc3Cl)o2)n1,AC50,[8],1.18 µM (active)
O=C(NN=Cc1ccc(N2CCOCC2)s1)c1ccc([N+](=O)[O-])cc1,IC50,[10],13.1 µM (active)
COc1cc2c(cc1OC)C(COc1ccc3c(C)cc(=O)oc3c1)N(C(=O)c1ccco1)CC2 (configuration not stated),IC50,[10],> 79 µM (inactive)
COc1ccc(-c2oc(=O)c3cc(OC)c(OC)cc3c2C#CCCO)cc1,IC50,[10],> 79 µM (inactive)
Cc1cc(C)nc(NC(=O)CSc2nc3ccccc3s2)n1,EC50,[5],4.91 µM (active)
same,EC50,[6],48.4 µM (active)
same,EC50,[7],15.1 µM (active)
CC1(C)CC(=O)c2sc(NC(=O)C(C)(C)C)nc2C1,EC50,[5],16 µM (active)
same,EC50,[6],1.31 µM (active)
same,EC50,[7],18.5 µM (active)
C=CCn1c(CNC(=O)c2ccco2)nnc1SCC(=O)Nc1cccc(Br)c1,IC50,[11],90.1 µM (active)
CCn1c(C)c(C)c2cc(C(=O)N3CCc4ccccc4C3)ccc21,AC50,[4],4.05 µM (active)
same,IC50,[9],> 100 µM (inactive)
CC(C)CCNC(=O)c1ccc2c(SCC(=O)O)c3c(nc2c1)CCCC3,IC50,[11],39.2 µM (active)
O=C(C=Cc1cccs1)c1ccc(Cl)s1,IC50,[9],19.7 µM (active)
Cc1ccc(-c2cn(S(=O)(=O)c3ccc(C)cc3)nc2N)cc1,EC50,[3],> 260 µM (inactive)
Cn1c(=O)n(/N=C/c2ccccc2)c2ccccc21,EC50,[5],17.3 µM (active)
same,EC50,[6],10.7 µM (active)
same,EC50,[7],31 µM (active)
CN1CCN(c2ccc(NC(=O)COc3ccc(Cl)cc3Cl)cc2)CC1,AC50,[8],2.6 µM (active)
Cc1cc(C)c(NC(=O)CN2C(=O)NC3(CCCCC3)C2=O)c(Cl)c1,IC50,[11],29.3 µM (active)
CC(C)c1ccc2[nH]c3c(c2c1)[C@@H]1CCN2C(=O)CCC[C@H](C3)[C@H]12,EC50,[5],11.9 µM (active)
same,EC50,[6],53.6 µM (active)
same,EC50,[7],> 120 µM (not active)
CN(C)N(Cc1ccccc1)C(=O)C(O)(c1ccccc1)c1ccccc1,IC50,[10],> 79 µM (inactive)
CC1(C)CC[C@]2(CO)[C@@H](O)C[C@]3(C)C(=CCC4[C@@]5(C)CC[C@H](O)C(C)(C)C5CC[C@]43C)[C@@H]2C1 (some centres not stated),AC50,[8],3.14 µM (active)
COc1ccc2c(c1)c(C(O)CN1CCN(Cc3ccc4c(c3)OCO4)CC1)c(C)n2C (configuration not stated),IC50,[9],> 100 µM (inactive)
Cc1oc2ccc(NS(=O)(=O)c3ccc(C(C)(C)C)cc3)cc2c1C(=O)Nc1ccccc1,EC50,[3],> 260 µM (inactive)
CCCc1cc(O)nc(SCC(=O)N(C)CC(=O)Nc2ccc(C)cc2)n1,IC50,[11],9.77 µM (active)
CCOC(=O)C1(Cc2cccc(OC)c2)CCCN(C(=O)c2cc(C)[nH]n2)C1 (configuration not stated),EC50,[5],12.5 µM (active)
same,EC50,[6],23.2 µM (active)
same,EC50,[7],> 120 µM (not active)
CCOCCCNC(=O)C(c1ccc(Cl)cc1)N1CCC2(CC1)OCCO2 (configuration not stated),IC50,[9],> 100 µM (inactive)
Cc1ccc(-c2nc(-c3ccncc3)no2)c(C)c1,IC50,[9],40.9 µM (active)
COc1ccc(-c2c(C)c3cc(O)ccc3oc2=O)cc1OC,EC50,[3],> 260 µM (inactive)
Cc1ccc(C)c(NC(=O)CSc2nc(O)c3c(C(F)(F)F)cc(-c4cccs4)nc3n2)c1,EC50,[12],2.45 µM (active)
same,EC50,[13],3.04 µM (active)
same,AC50,[8],2.92 µM (active)
CCn1cc([N+](=O)[O-])c(C(=O)Nc2nc(-c3ccc(C)cc3)c(C)s2)n1,AC50,[8],4.24 µM (active)
CC1=NNC(=O)C1CCC(=O)N/N=C/C(Br)=C/c1ccccc1 (configuration not stated),IC50,[11],8 µM (active)
Cc1cc(C)cc(NC(=O)CSc2ncc(S(=O)(=O)c3ccccc3)c(=O)[nH]2)c1,IC50,[11],11.9 µM (active)
COc1cc(C(=O)Sc2ccc(Cl)cc2)cc(OC)c1OC,CC50,[14],32.8 µM (active)
same,EC50,[3],1.49 µM (active)
O=C(CSc1nnc[nH]1)Nc1cccc2ccccc12,IC50,[11],29.2 µM (active)
COc1ccc(CCNC(=O)COc2nsnc2N2CCOCC2)cc1OC,IC50,[9],> 100 µM (inactive)
CCc1n[nH]c(SCc2ccc(OCC(C)C)cc2)n1,EC50,[5],22.6 µM (active)
same,EC50,[6],10.2 µM (active)
same,EC50,[7],> 120 µM (not active)
CC(C)(c1ccccc1)c1ccc(OCCCN2CCNCC2)cc1,EC50,[1],2.42 µM (active)
same,EC50,[2],15.1 µM (active)
same,AC50,[8],0.2 µM (active)
same,EC50,[3],60.7 µM (active)
CC1=C(C(=O)OCC2CCCO2)C(c2ccccc2OC(C)C)C2=C(O)CC(c3ccco3)CC2=N1 (configuration not stated),IC50,[9],> 100 µM (inactive)
O=C1NC(c2ccccc2)=N/C1=C/c1ccco1,EC50,[5],0.322 µM (active)
same,EC50,[6],55.5 µM (active)
same,EC50,[7],5.71 µM (active)
